Publication PMC11432330, “Novel Drug-like HsrA Inhibitors Exhibit Potent Narrow-Spectrum Antimicrobial Activities against Helicobacter pylori” (International Journal of Molecular Sciences, 2024)
In brackets after ≈: the same amount, converted by molar mass. Entries after “also recorded” stand apart in the source; their conditions may differ. Read-outs that look alike come from different tables or passages of the source.

Legend:
[1] = tested on: K. pneumoniae ATCC 700603; assay: MIC/MBC according to EUCAST guidelines; type: cell-based, Klebsiella pneumonia; settings: Klebsiella pneumoniae, ATCC700603
Method: (§1) The antimicrobial activities of the selected compounds against several Gram-negative and Gran-positive representative species of normal human microbiota were determined according to the EUCAST guidelines. Briefly, standardized inoculums (0.5 McFarland) were freshly prepared from overnight Mueller–Hinton agar plates of reference strains E. coli ATCC 25922, K. pneumonia ATCC 700603, E. faecalis ATCC 29212, S. aureus ATCC 29213, S. epidermidis ATCC 12228, and S. agalactiae ATCC 12386. Next, bacterial suspensions adjusted to 5 × 10^5 CFU/mL in Mueller–Hinton broth were exposed to a range of concentrations from 64 to 0.031 mg/L of the selected compounds. DMSO and conventional antibiotics LVX and AMP were included as controls. […] Experiments were performed twice in triplicate.

H. pylori = assay: MIC across the four H. pylori strains tested (text summaries); type: cell-based, Helicobacter pylori; settings: for MIC: Helicobacter pylori
Method: (§2) The antimicrobial activity of the HsrA inhibitors was evaluated by the determination of the minimal inhibitory concentration (MIC) against four different strains of H. pylori: ATCC 700392 (aka 26695), ATCC 43504 (MTZ-resistant reference strain), ATCC 700684 (CLR-resistant reference strain), and Donostia 2 (LVX-resistant clinical isolate). The MICs were determined by the broth microdilution method, as previously described. Briefly, H. pylori strains were grown in blood agar at 37 °C for 72 h under microaerobic conditions. Fresh inoculums adjusted at OD600 = 0.01 [~10^6 colony forming units (CFU) per mL] in BHI broth supplemented with 4% fetal bovine serum (BHI + FBS) were prepared and immediately exposed to final concentrations between 64 and 0.031 mg/L of each compound of interest. The compound solvent (DMSO) as well as conventional antibiotics (MTZ, CLR, LVX) were included as controls. […] Each experiment was performed twice in triplicate. The MIC and MBC values of the selected compounds against C. jejuni ATCC 33560 were determined by using the same method and culture conditions described for the H. pylori strains.

response regulator HsrA = assay: EMSA: inhibition of in vitro DNA binding activity of HsrA to promoter PporGDAB; type: biochemical, Helicobacter pylori; settings: 6 μM HsrA, 120 ng PporGDAB, ligand 0.1-2 mM
Method: The DNA binding activities of recombinant HsrA and CosR were assessed in vitro by electrophoretic mobility shift assays (EMSAs). A 300-bp promoter region of the H. pylori 26695 operon porGDAB was used as the target sequence of HsrA in all EMSA experiments. Likewise, a 420-bp sequence of the C. jejuni sodB promoter (ATCC 33560) was used as the target DNA of CosR [90]. The oligonucleotides used for the synthesis of these promoter regions are described in Supplementary Table S4. Response regulators HsrA (6 μM) or CosR (700 nM) were mixed with 120 ng of their target promoters in a reaction buffer of 10 mM bis-Tris (pH 7.5), 40 mM KCl, 100 mg/L BSA, 1 mM DTT, and 5% glycerol. For the in vitro inhibition analyses, mixtures of target DNA and response regulator were exposed to 2, 1, 0.5, and 0.1 mM of each compound of interest, incubated at room temperature for 20 min, and then separated on a 6% non-denaturing electrophoresis. DMSO instead of inhibitors was included as a vehicle control, while an internal sequence of the Anabaena sp. pkn22 gene was used as the non-specific competitor in all assays. For DNA-protein binding visualization, gels were stained with the SYBR Safe DNA gel stain (Invitrogen) and analyzed with a Gel Doc 2000 Image Analyzer (Bio-Rad).

C. jejuni ATCC 33560 = assay: MIC/MBC, broth microdilution; type: cell-based; settings: Campylobacter jejuni, ATCC33560, C. jejuni ATCC 33560
Method: as §2

[2] = Cytotoxicity, PrestoBlue cell viability assay; type: cell-based; settings: human; HeLa cells, 24 h exposure; read-out: CC50 (50% cytotoxic concentration)
Method: (§3) The in vitro toxicity of the selected HsrA inhibitors was determined on HeLa cells by the PrestoBlue^TM assay, as previously described. Briefly, cells were cultured at 37 °C with 5% CO2 in Dulbecco’s modified Eagle’s medium containing 10% fetal bovine serum, 1% L-GlutaMAX^TM solution (Thermo Fisher Scientific), and 1% penicillin/streptomycin. When 80% confluence was achieved, cells were detached, counted, seeded in 96-well microplates at a density of 10,000 cells per well, and allowed to adhere for 24 h. Next, the mammalian cells were exposed to selected compounds at a range of 0.125 to 128 mg/L. After 24 h of exposure, the cell viability was measured with the PrestoBlue^TM cell viability reagent (Thermo Fisher Scientific), according to the manufacturer’s instructions. Experiments were performed twice in triplicate. The 50% cytotoxic concentration (CC50) of each compound was calculated by regression analysis using Microsoft Excel. Therapeutic index (TI) values were calculated as the ratio of the CC50 to the higher MIC observed for each compound [111].

HeLa cells = assay: Cytotoxicity, PrestoBlue cell viability assay; type: cell-based; settings: for TI (CC50/MIC), therapeutic index: CC50 on HeLa / higher MIC observed against H. pylori
Method: as §3

[3] = tested on: S. epidermidis ATCC 12228; assay: MIC/MBC according to EUCAST guidelines; type: cell-based; settings: Staphylococcus epidermidis, ATCC12228
Method: as §1

E. coli ATCC 25922 = assay: MIC/MBC according to EUCAST guidelines; type: cell-based; settings: Escherichia coli, ATCC25922
Method: as §1

S. aureus ATCC 29213 = assay: MIC/MBC according to EUCAST guidelines; type: cell-based; settings: Staphylococcus aureus, ATCC29213
Method: as §1

S. agalactiae ATCC 12386 = assay: MIC/MBC according to EUCAST guidelines; type: cell-based; settings: Streptococcus agalactiae, ATCC12386
Method: as §1

E. faecalis ATCC 29212 = assay: MIC/MBC according to EUCAST guidelines; type: cell-based; settings: Enterococcus faecalis, ATCC29212
Method: as §1

[4] = four strains incl. CLR-, MTZ- and LVX-resistant, read-out: MIC against all H. pylori strains tested

## CSc1cccc(NC(=S)NCCNc2c([N+](=O)[O-])cc(C(F)(F)F)cc2[N+](=O)[O-])c1 [Ligand IV]
[1]
  MBC: > 64 µg/mL
  MIC: > 64 µg/mL
H. pylori; [4]
  MIC: 0.031 to 4 µg/mL (≈ 0.0652 to 8.41 µM)
Response regulator HsrA
  Inhibition of in vitro DNA binding activity of HsrA (EMSA): appreciably stronger; also recorded: noticeably inhibited
C. jejuni ATCC 33560
  MBC: > 64 µg/mL
  MIC: 64 µg/mL (≈ 135 µM)
[2]
  CC50 at 24 h: 135 µg/mL (≈ 284 µM)
HeLa cells; HeLa cells, 8 mg/L, 24 h
  Cytotoxicity at 8 mg/L: completely safe
[3]
  MBC: > 64 µg/mL
  MIC: > 64 µg/mL
E. coli ATCC 25922
  MBC: > 64 µg/mL
  MIC: > 64 µg/mL
S. aureus ATCC 29213
  MBC: > 64 µg/mL
  MIC: > 64 µg/mL
S. agalactiae ATCC 12386
  MBC: > 64 µg/mL
  MIC: > 64 µg/mL
E. faecalis ATCC 29212
  MBC: > 64 µg/mL
  MIC: > 64 µg/mL

## CSc1cccc(Nc2nc(C(C)(C)C)cs2)c1 [Ligand XI]
[1]
  MBC: > 64 µg/mL
  MIC: > 64 µg/mL
H. pylori; [4]
  MIC: 0.031 to 4 µg/mL (≈ 0.111 to 14.4 µM)
Response regulator HsrA
  Inhibition of in vitro DNA binding activity of HsrA (EMSA): noticeably inhibited
C. jejuni ATCC 33560
  MBC: > 64 µg/mL
  MIC: > 64 µg/mL
[2]
  CC50 at 24 h: 21.8 µg/mL (≈ 78.3 µM)
HeLa cells
  TI (CC50/MIC), therapeutic index: 5.4
HeLa cells; HeLa cells, 8 mg/L, 24 h
  Cytotoxicity at 8 mg/L: completely safe
[3]
  MBC: 64 µg/mL (≈ 230 µM)
  MIC: 16 µg/mL (≈ 57.5 µM)
E. coli ATCC 25922
  MBC: > 64 µg/mL
  MIC: > 64 µg/mL
S. aureus ATCC 29213
  MBC: 32 µg/mL (≈ 115 µM)
  MIC: 16 µg/mL (≈ 57.5 µM)
S. agalactiae ATCC 12386
  MBC: 8 µg/mL (≈ 28.7 µM)
  MIC: 8 µg/mL (≈ 28.7 µM)
E. faecalis ATCC 29212
  MBC: 64 µg/mL (≈ 230 µM)
  MIC: 64 µg/mL (≈ 230 µM)

## NC(=NOC(=O)Nc1ccc(Cl)cc1)c1csc([N+](=O)[O-])c1 [Ligand V, N′-{[(4-chloroanilino)carbonyl]}oxy-5-nitrothiophene-3-carboximidamide]
[1]
  MBC: > 64 µg/mL
  MIC: > 64 µg/mL
H. pylori; read-out: MIC against all H. pylori strains tested, four strains incl. CLR-, MTZ- and LVX-resistant
  MIC: 0.031 to 0.125 µg/mL (≈ 0.091 to 0.367 µM)
H. pylori; [4]
  MIC: 0.031 to 4 µg/mL (≈ 0.091 to 11.7 µM)
H. pylori; same H. pylori strains
  Antimicrobial potency relative to ligand XII: at least 4 fold
  Antimicrobial potency relative to metronidazole: more than 10 fold
Response regulator HsrA
  Inhibition of in vitro DNA binding activity of HsrA (EMSA): noticeably inhibited
C. jejuni ATCC 33560
  MBC: ≤ 0.5 µg/mL
  MIC: ≤ 0.5 µg/mL
[2]
  CC50 at 24 h: 183 µg/mL (≈ 538 µM)
HeLa cells; HeLa cells, 8 mg/L, 24 h
  Cytotoxicity at 8 mg/L: completely safe
[3]
  MBC: > 64 µg/mL
  MIC: > 64 µg/mL
E. coli ATCC 25922
  MBC: > 64 µg/mL
  MIC: > 64 µg/mL
S. aureus ATCC 29213
  MBC: > 64 µg/mL
  MIC: > 64 µg/mL
S. agalactiae ATCC 12386
  MBC: > 64 µg/mL
  MIC: > 64 µg/mL
E. faecalis ATCC 29212
  MBC: > 64 µg/mL
  MIC: > 64 µg/mL

## N#C/C(=C\C=C\c1ccccc1)c1nc2ccccc2[nH]1 [Ligand XII]
[1]
  MBC: > 64 µg/mL
  MIC: > 64 µg/mL
H. pylori; [4]
  MIC: 0.031 to 4 µg/mL (≈ 0.114 to 14.7 µM)
Response regulator HsrA
  Inhibition of in vitro DNA binding activity of HsrA (EMSA): noticeably inhibited
C. jejuni ATCC 33560
  MBC: > 64 µg/mL
  MIC: 64 µg/mL (≈ 236 µM)
[2]
  CC50 at 24 h: 13.4 µg/mL (≈ 49.4 µM)
HeLa cells
  TI (CC50/MIC), therapeutic index: 6.7
[3]
  MBC: > 64 µg/mL
  MIC: > 64 µg/mL
E. coli ATCC 25922
  MBC: > 64 µg/mL
  MIC: > 64 µg/mL
S. aureus ATCC 29213
  MBC: > 64 µg/mL
  MIC: > 64 µg/mL
S. agalactiae ATCC 12386
  MBC: > 64 µg/mL
  MIC: > 64 µg/mL
E. faecalis ATCC 29212
  MBC: > 64 µg/mL
  MIC: > 64 µg/mL

## OC1(C(F)(F)F)CC(c2ccc3c(c2)Nc2ccccc2S3)=NN1 (centres unmarked) [Ligand VIII]
[1]
  MBC: > 64 µg/mL
  MIC: > 64 µg/mL
H. pylori; [4]
  MIC: 0.031 to 4 µg/mL (≈ 0.0882 to 11.4 µM)
Response regulator HsrA
  Inhibition of in vitro DNA binding activity of HsrA (EMSA): appreciably stronger; also recorded: noticeably inhibited
C. jejuni ATCC 33560
  MBC: 32 µg/mL (≈ 91.1 µM)
  MIC: 16 µg/mL (≈ 45.5 µM)
[2]
  CC50 at 24 h: 6.5 µg/mL (≈ 18.5 µM)
HeLa cells
  TI (CC50/MIC), therapeutic index: 3.2
HeLa cells; HeLa cells, 8 mg/L, 24 h
  Cell death: 68%
[3]
  MBC: 4 µg/mL (≈ 11.4 µM)
  MIC: 4 µg/mL (≈ 11.4 µM)
E. coli ATCC 25922
  MBC: > 64 µg/mL
  MIC: > 64 µg/mL
S. aureus ATCC 29213
  MBC: 32 µg/mL (≈ 91.1 µM)
  MIC: 16 µg/mL (≈ 45.5 µM)
S. agalactiae ATCC 12386
  MBC: 32 µg/mL (≈ 91.1 µM)
  MIC: 16 µg/mL (≈ 45.5 µM)
E. faecalis ATCC 29212
  MBC: 64 µg/mL (≈ 182 µM)
  MIC: 64 µg/mL (≈ 182 µM)

## N#Cc1cnn(-c2ccc(C(F)(F)F)cc2[N+](=O)[O-])c1N [Ligand I]
[1]
  MBC: > 64 µg/mL
  MIC: > 64 µg/mL
H. pylori; [4]
  MIC: 0.031 to 4 µg/mL (≈ 0.104 to 13.5 µM)
Response regulator HsrA
  Inhibition of in vitro DNA binding activity of HsrA (EMSA): noticeably inhibited
C. jejuni ATCC 33560
  MBC: 32 µg/mL (≈ 108 µM)
  MIC: 32 µg/mL (≈ 108 µM)
[2]
  CC50 at 24 h: 119 µg/mL (≈ 401 µM)
HeLa cells; HeLa cells, 8 mg/L, 24 h
  Cytotoxicity at 8 mg/L: completely safe
[3]
  MBC: > 64 µg/mL
  MIC: > 64 µg/mL
E. coli ATCC 25922
  MBC: > 64 µg/mL
  MIC: > 64 µg/mL
S. aureus ATCC 29213
  MBC: > 64 µg/mL
  MIC: > 64 µg/mL
S. agalactiae ATCC 12386
  MBC: 64 µg/mL (≈ 215 µM)
  MIC: 32 µg/mL (≈ 108 µM)
E. faecalis ATCC 29212
  MBC: > 64 µg/mL
  MIC: > 64 µg/mL
